How the values were obtained:
H446 cells = assay: Cell viability (IC50) assay in H446 SCLC cells; format: cell-based, human
Description: FIG. 1A: H446 and H69 cells treated with increasing concentrations of Rucaparib. […] (IC50 values: ^177Lu-DOTA-TOC: 8.9 kBq, ^177Lu-DOTATOC and 5 μM Rucaparib: 0.9 kBq, ^177LU-DOTATOC and 20 μM Rucaparib; 0.4 kBq)
(§1) FIG. 1A). […] At such concentrations, neither Rucaparib nor ^177Lu-DOTATOC, respectively, alone have any major impact on cell viability. The activity required for ^177Lu-DOTATOC to reduce cell viability to 50% by H446 cells in the combination treatment was reduced by a factor of 10 (5 μM Rucaparib) to 22 (20 μM Rucaparib).
(§2) Further evidence for such a synergistic effect was collected by analogous viability assays employing other PARP inhibitors, such as Olaparib and Talazoparib, in combination with ^177Lu-DOTATOC. The applied PARP inhibitor concentrations for combination therapy was adjusted depending on their individual cytotoxicity. […] That finding was proven in all cell lines.

H69 cells = assay: Cell viability (IC50) assay in H69 SCLC cells; format: cell-based, human
Source text: FIG. 3A: Determination of the IC50 values of Rucaparib in the H446 and H69 cell lines. FIG. 3B: H446, FIG. 3C: H69 cell lines. Cell viability was studied upon combined cell treatment with Olaparib and ^177Lu-DOTA-TOC vs. ^177Lu-DOTA-TOC alone.
as §1, §2

H69 SCLC cells = assay: Tumor growth delay and survival, H69 xenograft mouse model; conditions: PARP inhibitor alone
Description: H446 (FIG. 5) or H69 (FIG. 6) SCLC cells were subcutaneously inoculated in athymic nude mice to establish xenograft mouse models (injection of about 2 mio. cells in 200 μl Medium/Matrigel (1:1). Tumor volume and body weight were monitored daily during the study period. The differences of the initial tumor volume and the body weight of the mice of each treatment arm were negligible. The animals were treated with either PARP inhibitor alone or ^177Lu-DOTATOC alone, or with a combination of PARP inhibitor and of ^177Lu-DOTATOC. The onset of the treatment was at day 19 (H446 model) or at day 11 (H69 model) (administration of the PARP inhibitor), respectively. These groups were compared to an untreated control group. While the radiopharmaceutical was administered to the animals only once, the animals were treated with PARP inhibitor in two cycles of five days each (10 mg/kg in 200 μl PBS i.p.) at days 19 to 23 and 26 to 30 or at days 11 to 15 and 18 to 22, respectively. The treatment was interrupted for two days after the end of the first PARP inhibitor treatment cycle. ^177Lu-DOTATOC (40 MBq, 223 MBq/nmol) was administered in the middle of the first PARP inhibitor treatment cycle (at day 21 or at day 13, respectively). Study endpoint was a tumor size exceeding 15 mm in each dimension.

PARP = conditions: cited from earlier work
SSTR2 [1] = assay: in vivo; set-up: species or system athymic nude mice; conditions: athymic nude, mouse, 10 MBq
Description: (§3) H446 and H69 as SSTR2 expressing SCLC cell lines were subcutaneously inoculated into mice to establish a mouse xenograft model. The results were obtained from PET scans. […] By control experiments, the tumors were blocked with non-radioactive (non-labelled) DOTATOC (octreotide) for comparative reasons (“w/Block”).
(§4) Tumor accumulation of ^68Ga-DOTATOC (10 MBq) was evaluated in SCLC xenograft mouse model by subcutaneous inoculation of 2-3 mio SSTR2 expressing H446 and H69 cells, respectively, into athymic nude mice. The results (obtained from PET scans) shown in FIG. 8 reveal a visible uptake of ^68Ga-DOTATOC in the tumor after 4 hours p.i.

[2] = system: SSTR2 expressing H69 cells; assay: in vivo; set-up: species or system athymic nude mice; conditions: mouse
Description: as §3, §4

SSTR2 [3] = assay: in vivo; set-up: species or system athymic nude mice; conditions: athymic nude, mouse, 10 MBq; remark: listed apart in the source
Description: as §3, §4

SMILES: CNCc1ccc(-c2[nH]c3cc(F)cc4c3c2CCNC4=O)cc1 [Rucaparib]
- Cell viability (H446 cells; 20 μM Rucaparib alone): slightly reduced
- IC50 (H446 cells; Homo sapiens, NCI-H446, Rucaparib alone): 32 µM
- Cell viability (H69 cells; 20 μM Rucaparib alone): slightly reduced
- IC50 (H69 cells; Homo sapiens, NCI-H69, Rucaparib alone): 36 µM
- Anti-cancer effect of single therapy (H69 SCLC cells): did not result in major anti-cancer effects

SMILES: Cn1ncnc1[C@H]1c2n[nH]c(=O)c3cc(F)cc(c23)N[C@@H]1c1ccc(F)cc1 [Talazoparib]
- Potency relative to olaparib (PARP): about 100 times

SMILES: C[C@@H](O)[C@@H]1NC(=O)[C@H](CCCCN)NC(=O)[C@@H](Cc2c[nH]c3ccccc23)NC(=O)[C@H](Cc2ccc(O)cc2)NC(=O)[C@@H](NC(=O)[C@@H](Cc2ccccc2)NC(=O)CN2CCN(CC(=O)O)CCN(CC(=O)O)CCN(CC(=O)O)CC2)CSSC[C@@H](C(=O)N[C@H](CO)[C@@H](C)O)NC1=O [^68Ga-DOTATOC, ^68Ga-DOTA-D-Phe-cyclo(Cys-Tyr-D-Trp-Lys-Thr-Cys)Thr(ol), metal not drawn]
- tissue uptake at 4 h (SSTR2 [1]): 1 to 3 %ID/g
- Uptake in H69 cells relative to H446 cells [2]: ~2 fold
- tissue uptake at 4 h (SSTR2 [3]): 1 to 3 %ID/g

SMILES: O=C(c1cc(Cc2n[nH]c(=O)c3ccccc23)ccc1F)N1CCN(C(=O)C2CC2)CC1 [Olaparib]
- Anti-cancer effect of single therapy (H69 SCLC cells): did not result in major anti-cancer effects

Reference: patent US20250345468A1, “COMBINATION TREATMENT OF SMALL-CELL LUNG CANCER” (ITM ISOTOPE TECHNOLOGIES MUNICH SE, priority 2022, published 2025)
